Assay results: patent publication US12258336B2, “Preparation of seimicarbazide-sensitive amine oxidase inhibitor and use thereof” (SHANGHAI ENNOVABIO PHARMACEUTICALS CO., LTD., priority 2018, dated 2025)

Experiments:
Assay type in all cases: biochemical
Recombinant human MAO-B = target: T1, Recombinant human MAO-B (Homo sapiens, UniProt P27338); assay: Inhibitory activity on MAO-B
T1 construct: purchased Sigma M7441
T1 sequence (P27338 1-520): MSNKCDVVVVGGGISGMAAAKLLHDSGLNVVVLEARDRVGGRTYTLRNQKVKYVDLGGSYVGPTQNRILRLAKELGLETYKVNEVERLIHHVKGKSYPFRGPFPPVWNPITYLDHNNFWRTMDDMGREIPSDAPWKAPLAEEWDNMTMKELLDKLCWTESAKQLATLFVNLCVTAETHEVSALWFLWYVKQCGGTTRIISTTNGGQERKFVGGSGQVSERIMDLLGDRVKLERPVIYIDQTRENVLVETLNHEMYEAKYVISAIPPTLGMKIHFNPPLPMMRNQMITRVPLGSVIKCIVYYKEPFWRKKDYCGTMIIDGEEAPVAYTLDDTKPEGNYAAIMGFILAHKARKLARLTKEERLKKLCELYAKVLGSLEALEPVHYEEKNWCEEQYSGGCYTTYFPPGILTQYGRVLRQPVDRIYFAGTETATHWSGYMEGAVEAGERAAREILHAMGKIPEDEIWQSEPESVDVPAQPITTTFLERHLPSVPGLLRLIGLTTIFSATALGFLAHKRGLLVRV
Procedure: (§1) Recombinant human MAO-A and MAO-B protein was purchased from Sigma (M7316, M7441). Other reagents are the same as Biological Test Example 1. The final concentration of test compound in 10 μL reaction system was 100 μM to 5 nM when MAO-A and MAO-B were detected. The final concentrations of MAO-A and MAO-B protein in 10 μL reaction system were 70 nM and 300 nM, respectively, while other reaction conditions were the same as those in Biological Test Example 1. Data analysis and IC50 calculation method were the same as those in Biological Test Example 1.

Recombinant human MAO-A = target: T2, Recombinant human MAO-A (Homo sapiens, UniProt P21397); assay: Inhibitory activity on MAO-A
T2 construct: purchased Sigma M7316
T2 sequence (P21397 1-527): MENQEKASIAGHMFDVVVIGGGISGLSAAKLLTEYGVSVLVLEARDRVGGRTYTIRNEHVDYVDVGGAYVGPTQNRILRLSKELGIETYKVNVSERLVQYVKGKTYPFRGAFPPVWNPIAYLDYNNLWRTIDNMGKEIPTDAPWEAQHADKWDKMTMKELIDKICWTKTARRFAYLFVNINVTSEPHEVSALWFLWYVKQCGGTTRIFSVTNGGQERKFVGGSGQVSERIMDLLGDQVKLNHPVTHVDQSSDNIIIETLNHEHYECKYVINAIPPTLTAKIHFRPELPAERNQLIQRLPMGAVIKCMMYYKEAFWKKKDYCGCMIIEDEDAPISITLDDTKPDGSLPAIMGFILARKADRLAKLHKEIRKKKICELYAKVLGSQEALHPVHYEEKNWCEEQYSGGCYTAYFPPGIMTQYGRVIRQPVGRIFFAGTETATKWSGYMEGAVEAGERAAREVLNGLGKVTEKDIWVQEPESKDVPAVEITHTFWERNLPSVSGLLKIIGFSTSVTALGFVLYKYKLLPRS
Procedure: as §1

[1] = target: T3, Recombinant human SSAO protein (Homo sapiens, UniProt Q16853); assay: In vitro inhibitory activity on SSAO/VAP-1 (MAO-Glo assay), human
T3 construct: Eli Lilly (provided, not a catalogue product)
T3 sequence (Q16853 1-763): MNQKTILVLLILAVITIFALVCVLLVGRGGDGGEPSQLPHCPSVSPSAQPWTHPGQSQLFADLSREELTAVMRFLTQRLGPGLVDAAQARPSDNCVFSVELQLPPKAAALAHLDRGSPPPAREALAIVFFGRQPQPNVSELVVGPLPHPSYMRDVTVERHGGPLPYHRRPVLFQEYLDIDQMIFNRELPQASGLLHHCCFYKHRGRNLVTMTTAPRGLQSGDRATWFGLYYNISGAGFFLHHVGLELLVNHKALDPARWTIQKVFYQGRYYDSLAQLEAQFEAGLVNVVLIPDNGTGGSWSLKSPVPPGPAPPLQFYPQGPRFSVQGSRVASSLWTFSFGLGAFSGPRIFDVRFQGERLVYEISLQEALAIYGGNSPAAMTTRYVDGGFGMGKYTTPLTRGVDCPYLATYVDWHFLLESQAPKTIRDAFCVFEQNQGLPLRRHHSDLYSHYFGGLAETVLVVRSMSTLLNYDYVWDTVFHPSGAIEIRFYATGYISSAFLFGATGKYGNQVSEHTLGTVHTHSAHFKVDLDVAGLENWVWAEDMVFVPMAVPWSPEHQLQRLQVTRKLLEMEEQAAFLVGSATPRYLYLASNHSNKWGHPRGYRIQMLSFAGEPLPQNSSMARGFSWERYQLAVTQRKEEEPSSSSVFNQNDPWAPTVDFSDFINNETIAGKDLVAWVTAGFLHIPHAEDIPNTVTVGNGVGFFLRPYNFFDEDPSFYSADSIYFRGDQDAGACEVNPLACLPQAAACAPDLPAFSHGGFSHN
Procedure: This assay was used to evaluate the in vitro inhibitory activity of the compounds on SSAO/VAP-1 of different species. Recombinant human SSAO protein, mouse SSAO protein or rat SSAO protein (provided by Eli Lilly) were used. The enzyme activity detection kit, MAO-Glo Assay kit (V1402) was purchased from Promega. Enzyme reaction buffer (50 mM HEPES, 120 mM NaCl, 5 mM KCl, 2 mM CaCl2, 1.4 mM MgCl2, 0.001% Tween-20, pH7.4) was prepared. The test compound was dissolved in DMSO and diluted by 3-fold concentration in gradient. The final concentration of test compound in a 10 μL reaction system was 1 μM to 0.05 nM when SSAO was detected. The content of DMSO in the detection reaction was 1%. After the solution of test compound in DMSO was diluted in the enzyme reaction buffer at a volume ratio of 1:25, 2.5 μL of which was added to each well of detection plate, two replicates for each concentration. 5 μL of SSAO protein diluted in the enzyme reaction buffer was added to each well, the final concentration of which was 10 nM to 80 nM in 10 μL reaction system. The mixture was incubated at room temperature for 10 minutes. 2.5 μL of the reaction substrate diluted in the enzyme reaction buffer was added to each well, the final concentration of which was 10 μM in 10 μL reaction system. After the mixture was reacted at room temperature for 120 minutes, 10 μL of detection reagent was added to each well. The reaction solution was incubated for 20 minutes at room temperature, and the plate was read with Synergy Neo 2 for detection. The value was converted into inhibition rate by the following formula: Inhibition rate=(Signalpositive−Signaltest)/(Signalpositive−Signalnegative)×100%
Signalpositive was positive control without test compound. Signalnegative was negative control without test compound and SSAO enzyme, and Signaltest was detection value of each compound at different concentrations. IC50 value was calculated by using 4 parameter curve fitting.

- IC50 (Recombinant human MAO-B): > 20 µM
- IC50 (Recombinant human MAO-A): 2 to 100 µM
- IC50 [1]: > 0.05 µM
SMILES: NC/C(=C\F)COc1cnc(N2CC3(COC3)C2)nc1 [Example 11]
